Test results: patent publication US8242250B2, “Nucleic acid molecule encoding a cystine knot polypeptide” (The University of Queensland, priority 1999, dated 2012)

What was measured:
[1] = tested on: Helicoverpa armigera larvae; test: Bioassay with cotton leaf artificial diet, growth and development of larvae; format: in vivo
Experimental: Helicoverpa armigera larvae were raised on an artificial diet based on cotton leaves. One hundred ml of cotton leaf artificial diet was composed of 3 g cotton leaf powder (see below), 2 g Tortula yeast, 2.4 g wheat germ, 3.2 g ascorbic acid, 0.08 g sorbic acid, 0.16 g paraben (mould inhibitor), 0.08 ml linseed oil, 0.16 ml wheatgerm oil, 0.028 g ampicillin, 0.028 g streptomycin, 3.2 g agar and 80 ml water. Cotton leaf powder was prepared from freshly picked young, healthy cotton leaves which had been rapidly frozen in liquid nitrogen and freeze dried before they were ground to a fine powder using a mortar and pestle. Test diets contained the cyclic Kalata B1 peptide at 0.15% w/v of diet (high kalata) or 0.03% w/v of diet (low kalata), linear peptide (backbone chain opened between residues 7 and 8 [see FIG. 1A] at 0.15% w/v of diet. The control diet contained casein at 0.15% w/v of diet. The diet was mixed and dispensed as described for the Haricot bean diet and the bioassay was conducted in the same manner.
Newly hatched larvae were fed on an artificial diet based on cotton leaves, with and without added Kalata B1. […] Larvae on the Kalata B1 diet were about 18% of the size of those fed on the control diet.
Kalata peptides isolated from leaves are normally cyclic. The inventors sought to determine whether cyclization was essential for biological activity against insects. Newly hatched H. armigera larvae were added to an artificial diet based on cotton leaves which had been supplemented with cyclic Kalata B1 at either 0.15% w/v of diet or 0.03% w/v of diet. Growth of these larvae was compared to growth of larvae on diet with no added peptide or with added linear Kalata B1 at 0.15% w/v of the diet. Linear Kalata B1 is identical to cyclic Kalata B1 except the backbone chain is open between residues 7 and 8 [see FIG. 1A].

[2] = tested on: Helicoverpa punctigera larvae; test: Bioassay with Haricot bean artificial diet, growth and development of larvae; format: in vivo
Experimental: Helicoverpa punctigera larvae were raised on artificial diets based on Haricot beans (Teakle et al. (13)). One litre of diet was composed of 234 g Haricot beans, 14 g agar, 700 ml water, 35 g Tortula yeast, 50 g wheatgerm, 3.5 g ascorbic acid, 1.1 g sorbic acid, 2.2 g p-hydroxybenzoic acid methyl ester, 0.2 g ampicillin, 0.2 g streptomycin, 16 mg prochloraz. The beans were soaked overnight in water, drained and homogenized to a fine paste. Wheatgerm, yeast and 300 ml of water were added. The agar was dissolved in 400 ml of boiling water and added to the mixture. The mixture was cooled to 50° C. before the addition of the remaining ingredients. The blended diet was poured into trays and after setting was used immediately or stored at −20° C. for no longer than two weeks. The test diet was supplemented with the Kalata B1 peptide (0.825 μmol/g of diet). Twenty newly emerged neonates were added to each diet and mortality was recorded every two days. Weight gain was recorded at the sixth day and then every second day thereafter. The larvae were reared in 1.5 ml eppendorfs microfuge tubes (one larva/tube) until day eight when they were transferred to individual plastic containers with lids (Solo (trademark) plastic portion cups, 28 ml) at the eight day. Larvae were fed small amounts of diet (40 mg) initially that was replaced as required to provide a continuous supply. The larvae were kept in a temperature controlled room at 25±1° C., 16:8 (L:D).
Most larvae on the control diet, however, had achieved fifth instar (FIGS. 13B, C).

Kalata B1: 29 amino acid peptide with cyclic backbone and cystine knot from O. affinis (SEQ ID NO: 41) (cyclo(VCGETCVGGTCNTPGCTCSWPVCTRNGLP); disulfide (positions not given here); also: cystine knot, pairings not given here; listed as Oldenlandia affinis)
size of larvae relative to those fed on the control diet ([1]; cotton leaf diet with added Kalata B1, 12 days): about 18%
instar stage of development reached after 12 days ([1]; cotton leaf diet, 12 days, control larvae at third to fourth instar): failed to progress past the first instar stage of development
effect on growth compared with the linear form ([1]; cyclic form at one fifth the concentration of the linear form (0.03% vs 0.15% w/v of diet)): more significant effect on growth
instar stage of development reached by survivors after 16 days ([2]; 0.825 μmol/g of diet, 16 days, most control larvae at fifth instar): none of the 12 survivors had progressed past the first instar stage of development
larvae that failed to survive past day 16 ([2]; 0.825 μmol/g of diet, day 16): 50%
mortality in the first six days ([2]; 0.825 μmol/g of diet, first six days, twenty neonates): No mortality
size of larvae after 16 days on artificial diet ([2]; 16 days, control diet ~30 mm (FIG. 13C)): ~5 mm
effect on the development of larvae ([2]; Haricot bean diet with peptide 0.825 μmol/g of diet): significant effect
